Results taken from ChEMBL document CHEMBL1201862, “PubChem BioAssay data set” (2004).
The source made the active and inactive calls. For most assays here, no stated cut-off is given here; in the data, actives have a measured IC50 and inactives only a lower limit.

Experiments:
[1] = molecular target: Glyceraldehyde-3-phosphate dehydrogenase (Homo sapiens, UniProt P04406)
[2] = molecular target: T1, Alkaline phosphatase, tissue-nonspecific isozyme (Homo sapiens, UniProt P05186); experiment: human TNAP enzyme inhibitors, SAR follow-up, biochemical, luminescent, dose response (AID 1056)
T1 sequence (P05186 whole entry): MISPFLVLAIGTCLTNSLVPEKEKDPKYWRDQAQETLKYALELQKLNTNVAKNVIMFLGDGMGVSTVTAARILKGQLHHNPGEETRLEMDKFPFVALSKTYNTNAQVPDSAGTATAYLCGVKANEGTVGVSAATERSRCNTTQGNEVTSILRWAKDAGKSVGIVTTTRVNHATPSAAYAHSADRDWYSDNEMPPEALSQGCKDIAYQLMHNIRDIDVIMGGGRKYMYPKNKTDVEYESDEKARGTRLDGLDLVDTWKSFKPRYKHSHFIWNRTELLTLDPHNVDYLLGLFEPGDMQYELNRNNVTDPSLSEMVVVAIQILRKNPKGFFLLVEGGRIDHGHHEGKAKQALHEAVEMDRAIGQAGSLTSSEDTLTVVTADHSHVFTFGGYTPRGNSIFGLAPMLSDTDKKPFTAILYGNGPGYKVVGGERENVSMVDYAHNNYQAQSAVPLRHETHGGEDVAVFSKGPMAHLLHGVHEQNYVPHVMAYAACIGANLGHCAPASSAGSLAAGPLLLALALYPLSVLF

[3] = molecular target: DNA dC->dU-editing enzyme APOBEC-3A (Homo sapiens, UniProt P31941); experiment: Dose Response confirmation of small molecule APOBEC3A DNA Deaminase Inhibitors via a fluorescence-based single-stranded DNA deaminase assay. [Related pubchem assays (depositor defined):AID493011, AID493024]; assay type: functional
Chain of DNA dC->dU-editing enzyme APOBEC-3A (P31941 whole entry): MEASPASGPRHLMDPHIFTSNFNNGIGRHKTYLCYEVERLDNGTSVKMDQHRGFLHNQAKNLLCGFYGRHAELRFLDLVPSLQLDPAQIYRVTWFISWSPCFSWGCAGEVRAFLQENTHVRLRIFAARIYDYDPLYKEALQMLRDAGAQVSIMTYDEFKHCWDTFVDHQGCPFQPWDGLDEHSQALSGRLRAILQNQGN

[4] = molecular target: DNA dC->dU-editing enzyme APOBEC-3G (Homo sapiens, UniProt Q9HC16); assay type: functional;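 further: Dose-response counterscreen measuring inhibition of APOBEC3G DNA deaminase activity, run while confirming APOBEC3A inhibitors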
Chain of DNA dC->dU-editing enzyme APOBEC-3G (Q9HC16 whole entry): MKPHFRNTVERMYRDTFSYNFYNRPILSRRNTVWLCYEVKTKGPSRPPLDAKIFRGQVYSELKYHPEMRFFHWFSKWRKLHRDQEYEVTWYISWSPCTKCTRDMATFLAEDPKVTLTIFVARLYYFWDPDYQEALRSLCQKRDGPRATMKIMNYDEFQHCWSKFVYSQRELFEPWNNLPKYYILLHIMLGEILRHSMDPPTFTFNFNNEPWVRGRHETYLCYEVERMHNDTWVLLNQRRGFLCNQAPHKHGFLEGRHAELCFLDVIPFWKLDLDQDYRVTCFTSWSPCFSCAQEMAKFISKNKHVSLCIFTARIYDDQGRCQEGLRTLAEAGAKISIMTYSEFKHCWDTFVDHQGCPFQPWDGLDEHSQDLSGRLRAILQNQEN

[5] = molecular target: Estrogen receptor beta (Homo sapiens, UniProt Q92731); experiment: ERβ–SRC-3 coactivator interaction inhibitors, confirmation, orthogonal assay, biochemical, ELISA, streptavidin-HRP readout (AID 1060)
Chain of Estrogen receptor beta (Q92731 whole entry): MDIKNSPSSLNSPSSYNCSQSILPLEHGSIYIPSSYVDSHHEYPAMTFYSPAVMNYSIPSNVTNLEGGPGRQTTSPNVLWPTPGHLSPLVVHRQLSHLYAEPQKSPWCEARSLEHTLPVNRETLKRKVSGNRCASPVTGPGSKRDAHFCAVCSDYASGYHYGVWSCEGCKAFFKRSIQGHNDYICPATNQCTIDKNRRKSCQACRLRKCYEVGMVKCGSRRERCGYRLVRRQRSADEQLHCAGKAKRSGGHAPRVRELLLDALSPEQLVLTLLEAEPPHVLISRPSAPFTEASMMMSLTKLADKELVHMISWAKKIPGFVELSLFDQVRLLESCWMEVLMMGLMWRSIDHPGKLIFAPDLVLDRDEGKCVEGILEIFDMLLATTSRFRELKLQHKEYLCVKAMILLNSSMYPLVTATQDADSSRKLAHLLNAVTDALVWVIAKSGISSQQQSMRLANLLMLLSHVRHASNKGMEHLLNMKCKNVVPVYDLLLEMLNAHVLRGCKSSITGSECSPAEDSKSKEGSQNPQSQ

[6] = molecular target: Intestinal-type alkaline phosphatase (Mus musculus, UniProt P24822); experiment: PubChem AID 488785; assay type: functional
Chain of Intestinal-type alkaline phosphatase (Mus musculus, UniProt P24822) (P24822 whole entry): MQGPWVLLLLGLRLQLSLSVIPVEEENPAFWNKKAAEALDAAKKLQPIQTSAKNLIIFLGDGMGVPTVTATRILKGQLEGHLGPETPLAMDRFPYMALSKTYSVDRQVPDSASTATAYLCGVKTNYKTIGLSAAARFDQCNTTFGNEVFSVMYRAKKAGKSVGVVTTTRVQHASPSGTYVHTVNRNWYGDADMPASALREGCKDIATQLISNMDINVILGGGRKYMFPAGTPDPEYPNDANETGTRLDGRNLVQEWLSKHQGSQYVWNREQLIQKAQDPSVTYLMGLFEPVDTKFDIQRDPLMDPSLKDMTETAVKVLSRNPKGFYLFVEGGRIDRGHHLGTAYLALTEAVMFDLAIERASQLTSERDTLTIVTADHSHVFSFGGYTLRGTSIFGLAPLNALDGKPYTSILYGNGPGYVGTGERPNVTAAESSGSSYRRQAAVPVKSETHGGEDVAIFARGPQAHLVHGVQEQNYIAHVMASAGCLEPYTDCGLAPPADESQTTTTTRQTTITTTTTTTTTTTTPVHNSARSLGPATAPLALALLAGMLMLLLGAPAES

[7] = molecular target: T1, Alkaline phosphatase, tissue-nonspecific isozyme; experiment: TNAP enzyme inhibition by screening hits, dose response, selectivity assay for mouse IAP inhibitor project, biochemical, human TNAP, uHTS hits (AID 488906); assay type: functional
[8] = molecular target: Intestinal-type alkaline phosphatase (Homo sapiens, UniProt P09923); experiment: inhibition of human intestinal alkaline phosphatase – biochemical, dose response (AID 488876); assay type: functional
Chain of Intestinal-type alkaline phosphatase (Homo sapiens, UniProt P09923) (P09923 whole entry, the tested form may be a part): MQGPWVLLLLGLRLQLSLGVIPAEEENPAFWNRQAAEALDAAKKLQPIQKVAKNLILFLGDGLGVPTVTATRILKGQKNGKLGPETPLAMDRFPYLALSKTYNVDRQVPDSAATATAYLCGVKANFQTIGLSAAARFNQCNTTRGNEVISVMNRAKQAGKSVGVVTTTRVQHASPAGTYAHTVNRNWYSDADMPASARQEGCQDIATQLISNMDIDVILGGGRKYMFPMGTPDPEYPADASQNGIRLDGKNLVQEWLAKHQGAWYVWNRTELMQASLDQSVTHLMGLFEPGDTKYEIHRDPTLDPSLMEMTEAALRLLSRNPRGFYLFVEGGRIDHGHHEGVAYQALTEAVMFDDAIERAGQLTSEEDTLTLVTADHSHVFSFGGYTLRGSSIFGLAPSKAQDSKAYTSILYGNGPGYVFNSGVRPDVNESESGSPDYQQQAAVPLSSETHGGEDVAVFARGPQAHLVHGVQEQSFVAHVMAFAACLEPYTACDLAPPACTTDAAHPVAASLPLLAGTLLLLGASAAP

[9] = molecular target: T2, Carboxy-terminal domain RNA polymerase II polypeptide A small phosphatase 1 (Homo sapiens, UniProt Q9GZU7); experiment: inhibitors of CTDSP1, concentration-response testing, biochemical assay, absorbance-based, actives from ultra-high-throughput screening (AID 540297); assay type: functional
T2 sequence (Q9GZU7 whole entry): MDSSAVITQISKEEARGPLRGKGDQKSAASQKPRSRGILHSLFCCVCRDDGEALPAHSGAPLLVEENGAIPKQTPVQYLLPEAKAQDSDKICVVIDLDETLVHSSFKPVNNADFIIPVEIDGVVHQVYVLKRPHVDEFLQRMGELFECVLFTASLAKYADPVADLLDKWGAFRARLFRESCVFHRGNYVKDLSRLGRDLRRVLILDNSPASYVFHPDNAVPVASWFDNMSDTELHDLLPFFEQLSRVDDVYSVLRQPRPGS

[10] = molecular target: T3, Bcl-2-related protein A1 (Mus musculus, UniProt Q07440); assay type: functional;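 further: confirmatory dose–response counterscreen on Bfl-1, used to check hits from a UBC13 polyubiquitin inhibitor campaign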
T3 sequence (Q07440 whole entry): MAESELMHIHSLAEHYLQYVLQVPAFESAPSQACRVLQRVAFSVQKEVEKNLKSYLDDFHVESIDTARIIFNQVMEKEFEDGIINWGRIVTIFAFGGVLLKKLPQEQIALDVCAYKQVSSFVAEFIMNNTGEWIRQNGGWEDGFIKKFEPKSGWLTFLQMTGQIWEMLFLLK

[11] = molecular target: T4, Ubiquitin-conjugating enzyme E2 N (Homo sapiens, UniProt P61088); assay type: functional
T4 sequence (P61088 whole entry): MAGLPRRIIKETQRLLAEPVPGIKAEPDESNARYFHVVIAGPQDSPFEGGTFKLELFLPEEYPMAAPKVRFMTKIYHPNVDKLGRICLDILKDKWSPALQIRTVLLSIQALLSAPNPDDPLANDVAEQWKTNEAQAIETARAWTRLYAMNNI

[12] = molecular target: T4, Ubiquitin-conjugating enzyme E2 N; assay type: functional; remark: listed apart in the source

Chain of Glyceraldehyde-3-phosphate dehydrogenase (P04406 whole entry): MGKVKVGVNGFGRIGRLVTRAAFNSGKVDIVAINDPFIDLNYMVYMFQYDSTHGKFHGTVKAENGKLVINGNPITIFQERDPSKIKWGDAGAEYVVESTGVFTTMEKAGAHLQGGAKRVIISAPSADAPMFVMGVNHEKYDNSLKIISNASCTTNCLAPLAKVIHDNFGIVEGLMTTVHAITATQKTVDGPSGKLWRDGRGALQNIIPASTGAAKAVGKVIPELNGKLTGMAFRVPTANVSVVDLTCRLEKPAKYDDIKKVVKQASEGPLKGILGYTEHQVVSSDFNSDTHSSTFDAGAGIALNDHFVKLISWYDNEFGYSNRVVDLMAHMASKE

| IC50 [10] | IC50 [11] | IC50 [12] | Structure (SMILES) | IC50 [3] | IC50 [4] | other results |
| --- | --- | --- | --- | --- | --- | --- |
| – | – | – | O=S(=O)(Nc1ccc2ccccc2c1)c1ccc(Br)cc1OC(F)(F)F | – | – | IC50 [1]: > 10 µM (inconclusive); IC50 [2]: > 10 µM (inactive) |
| – | – | – | CCc1nc(-c2ccc(C)nc2OC)no1 | 3.49 µM (active) | 4.74 µM (active) | – |
| – | – | – | CC1=CC(C)(C)[N+](C)=CN1c1ccccc1 | 2.19 µM (active) | 4.28 µM (active) | – |
| – | – | – | CCOc1ccccc1N1CCN(S(=O)(=O)c2ccc3c4c(cccc24)C(=O)N3)CC1 | – | – | IC50 [5]: 9.19 µM (not active); IC50 [6]: 7.13 µM (active); IC50 [7]: 81.2 µM (active); IC50 [8]: > 100 µM (inactive); IC50 [9]: 7.47 µM (active) |
| > 20 µM (inactive) | 9.72 µM (active) | 14.4 µM (active) | Cc1ccc(NC(=O)C[n+]2ccn(C3=C([O-])c4ccccc4C3=O)c2)cc1 | – | – | – |
| > 20 µM (inactive) | 0.507 µM (active) | 0.548 µM (active) | COc1ccc(/C=N\NC(=O)c2sc(N)nc2C)cc1OC | – | – | – |
